Values quoted from earlier work in US11529374B2, “Extract and formulation including extract” (NIPPON ZOKI PHARMACEUTICAL CO., LTD., priority 2012, dated 2022).

Conditions: particularly an effect for non-inflammatory pain diseases such as neuropathic pain disease; Japanese Patent No. 4005115, CN 101600438B

Compound: CC(=O)N[C@H]1[C@H]([C@H](O)[C@H](O)CO)OC(O)(C(=O)O)C[C@@H]1O (stereo partly shown) [N-acetylneuraminic acid]
- Analgesic action: has an analgesic action
